Experimental data published in ChEMBL document CHEMBL1201862, “PubChem BioAssay data set” (2004).
Calls of active or inactive are those of the source.

How the values were obtained:
[1] = Vero E6 cell cytotoxicity, dose response, cytotoxicity control for non-replicating M. tuberculosis project, secondary assay (AID 492998); format: functional, VeroE6; conditions: Vero C1008
[2] = NIH-3T3 fibroblast cytotoxicity, dose response, cytotoxicity control, cell-based, fluorescence, Alamar Blue, secondary assay (AID 2327); format: functional;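 further: NIH-3T3 mouse fibroblasts cultured with fluconazole at 8 µg/mL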
[3] = fluconazole-exposed Candida albicans growth modulators – fluorescence, retest, confirmation (AID 2467); format: functional, cell-based
Ion channel NompC = Ion channel NompC (Danio rerio, UniProt Q7T1G6); test: Fluorescence counterscreen assay for TRPML3 agonists: dose response cell-based high-throughput screening assay to identify agonists of the transient receptor potential channel N1 (TRPN1). [Related pubchem assays: 1526, 1424, 1448 ]; format: functional
Ion channel NompC, sequence (Q7T1G6 whole entry): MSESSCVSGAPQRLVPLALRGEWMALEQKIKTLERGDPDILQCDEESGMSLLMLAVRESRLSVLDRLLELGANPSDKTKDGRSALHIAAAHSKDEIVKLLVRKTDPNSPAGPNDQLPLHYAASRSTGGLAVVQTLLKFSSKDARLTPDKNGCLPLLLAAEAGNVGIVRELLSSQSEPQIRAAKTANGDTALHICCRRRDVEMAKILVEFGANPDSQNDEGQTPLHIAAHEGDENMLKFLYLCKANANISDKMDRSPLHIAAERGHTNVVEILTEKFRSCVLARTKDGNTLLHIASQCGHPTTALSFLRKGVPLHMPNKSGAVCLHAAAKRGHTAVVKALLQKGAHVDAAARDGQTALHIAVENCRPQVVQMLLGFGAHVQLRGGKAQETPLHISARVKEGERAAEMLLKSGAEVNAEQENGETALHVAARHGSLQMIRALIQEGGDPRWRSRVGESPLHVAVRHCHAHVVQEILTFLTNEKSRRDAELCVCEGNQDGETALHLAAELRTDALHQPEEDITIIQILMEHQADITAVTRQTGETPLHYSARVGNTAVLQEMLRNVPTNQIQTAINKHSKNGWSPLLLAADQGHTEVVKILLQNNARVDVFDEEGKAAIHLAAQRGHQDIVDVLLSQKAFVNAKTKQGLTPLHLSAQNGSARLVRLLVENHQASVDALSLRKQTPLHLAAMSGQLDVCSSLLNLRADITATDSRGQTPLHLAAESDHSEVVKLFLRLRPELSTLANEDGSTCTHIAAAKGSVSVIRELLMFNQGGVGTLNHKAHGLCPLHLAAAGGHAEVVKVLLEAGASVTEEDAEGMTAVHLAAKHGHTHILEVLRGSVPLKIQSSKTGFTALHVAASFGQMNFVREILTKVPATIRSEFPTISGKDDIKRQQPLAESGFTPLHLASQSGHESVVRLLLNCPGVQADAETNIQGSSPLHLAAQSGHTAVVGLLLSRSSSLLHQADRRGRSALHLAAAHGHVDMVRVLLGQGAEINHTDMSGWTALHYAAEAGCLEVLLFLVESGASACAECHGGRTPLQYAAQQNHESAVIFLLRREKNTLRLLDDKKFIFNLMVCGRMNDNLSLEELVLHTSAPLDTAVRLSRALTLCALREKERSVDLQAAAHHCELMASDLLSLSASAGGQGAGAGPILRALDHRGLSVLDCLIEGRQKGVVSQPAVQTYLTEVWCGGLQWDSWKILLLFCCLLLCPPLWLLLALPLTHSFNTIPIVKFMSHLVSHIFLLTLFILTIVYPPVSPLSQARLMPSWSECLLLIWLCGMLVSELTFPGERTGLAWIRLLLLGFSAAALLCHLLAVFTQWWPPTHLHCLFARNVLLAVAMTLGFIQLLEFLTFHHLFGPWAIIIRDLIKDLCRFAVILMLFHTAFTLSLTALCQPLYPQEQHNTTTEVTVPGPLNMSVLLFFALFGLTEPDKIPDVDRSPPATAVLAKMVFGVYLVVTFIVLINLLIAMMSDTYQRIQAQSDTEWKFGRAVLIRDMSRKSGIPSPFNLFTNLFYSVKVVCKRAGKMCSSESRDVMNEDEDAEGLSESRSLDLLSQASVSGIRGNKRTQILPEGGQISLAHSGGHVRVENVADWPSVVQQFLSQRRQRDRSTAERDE

Mucolipin-3 = biological target: T1, Mucolipin-3 (Homo sapiens, UniProt Q8TDD5); test: Dose response cell-based high-throughput screening assay for agonists of the transient receptor potential channel ML3 (TRPML3). [Related pubchem assays: 1526, 1424, 1448 ]; format: functional
T1 sequence (Q8TDD5 whole entry): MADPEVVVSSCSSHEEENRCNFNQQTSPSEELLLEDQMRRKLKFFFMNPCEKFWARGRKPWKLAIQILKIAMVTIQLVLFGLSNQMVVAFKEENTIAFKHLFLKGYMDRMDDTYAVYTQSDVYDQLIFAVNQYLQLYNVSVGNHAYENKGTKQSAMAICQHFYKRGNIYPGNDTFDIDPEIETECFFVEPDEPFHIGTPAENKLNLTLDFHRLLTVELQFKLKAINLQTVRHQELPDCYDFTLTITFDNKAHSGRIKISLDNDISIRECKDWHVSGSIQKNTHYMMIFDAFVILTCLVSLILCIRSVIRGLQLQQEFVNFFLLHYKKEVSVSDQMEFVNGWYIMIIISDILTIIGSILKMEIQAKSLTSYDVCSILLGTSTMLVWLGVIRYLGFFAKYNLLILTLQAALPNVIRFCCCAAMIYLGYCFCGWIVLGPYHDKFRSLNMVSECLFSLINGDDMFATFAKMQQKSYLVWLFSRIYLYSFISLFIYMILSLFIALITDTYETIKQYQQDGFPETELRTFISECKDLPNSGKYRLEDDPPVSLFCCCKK

Cytochrome P450 3A4 [4] = biological target: T2, Cytochrome P450 3A4 (Homo sapiens, UniProt P08684)
T2 sequence (P08684 whole entry): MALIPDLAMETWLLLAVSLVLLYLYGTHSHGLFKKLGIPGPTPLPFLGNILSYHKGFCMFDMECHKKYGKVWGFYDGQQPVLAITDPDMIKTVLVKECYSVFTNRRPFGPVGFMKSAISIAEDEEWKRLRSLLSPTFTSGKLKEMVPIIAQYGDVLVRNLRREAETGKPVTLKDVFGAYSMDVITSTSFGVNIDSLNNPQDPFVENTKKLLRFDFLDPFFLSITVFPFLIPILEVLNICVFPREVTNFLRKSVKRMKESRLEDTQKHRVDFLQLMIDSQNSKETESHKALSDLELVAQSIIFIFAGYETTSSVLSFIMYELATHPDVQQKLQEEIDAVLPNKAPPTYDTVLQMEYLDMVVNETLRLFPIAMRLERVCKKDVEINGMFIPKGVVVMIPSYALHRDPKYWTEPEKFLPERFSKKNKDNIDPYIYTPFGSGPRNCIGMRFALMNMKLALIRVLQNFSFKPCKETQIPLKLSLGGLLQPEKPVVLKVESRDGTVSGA

INS1 = test: INS-1E survival protection against cytokine death – cell-based, luminescence, retest, dose response (AID 449756); format: functional; conditions: Rattus norvegicus;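 further: cell death triggered by IL-1 beta plus TNF-alpha plus IFN-gamma mixture; protective hits raise ATP signal compared with cytokine alone wells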
[5] = biological target: Voltage-dependent T-type calcium channel subunit alpha-1H (Homo sapiens, UniProt O95180); format: functional;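 further: channel activity triggered by adding a high calcium stimulation buffer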
Voltage-dependent T-type calcium channel subunit alpha-1H, sequence (O95180 whole entry): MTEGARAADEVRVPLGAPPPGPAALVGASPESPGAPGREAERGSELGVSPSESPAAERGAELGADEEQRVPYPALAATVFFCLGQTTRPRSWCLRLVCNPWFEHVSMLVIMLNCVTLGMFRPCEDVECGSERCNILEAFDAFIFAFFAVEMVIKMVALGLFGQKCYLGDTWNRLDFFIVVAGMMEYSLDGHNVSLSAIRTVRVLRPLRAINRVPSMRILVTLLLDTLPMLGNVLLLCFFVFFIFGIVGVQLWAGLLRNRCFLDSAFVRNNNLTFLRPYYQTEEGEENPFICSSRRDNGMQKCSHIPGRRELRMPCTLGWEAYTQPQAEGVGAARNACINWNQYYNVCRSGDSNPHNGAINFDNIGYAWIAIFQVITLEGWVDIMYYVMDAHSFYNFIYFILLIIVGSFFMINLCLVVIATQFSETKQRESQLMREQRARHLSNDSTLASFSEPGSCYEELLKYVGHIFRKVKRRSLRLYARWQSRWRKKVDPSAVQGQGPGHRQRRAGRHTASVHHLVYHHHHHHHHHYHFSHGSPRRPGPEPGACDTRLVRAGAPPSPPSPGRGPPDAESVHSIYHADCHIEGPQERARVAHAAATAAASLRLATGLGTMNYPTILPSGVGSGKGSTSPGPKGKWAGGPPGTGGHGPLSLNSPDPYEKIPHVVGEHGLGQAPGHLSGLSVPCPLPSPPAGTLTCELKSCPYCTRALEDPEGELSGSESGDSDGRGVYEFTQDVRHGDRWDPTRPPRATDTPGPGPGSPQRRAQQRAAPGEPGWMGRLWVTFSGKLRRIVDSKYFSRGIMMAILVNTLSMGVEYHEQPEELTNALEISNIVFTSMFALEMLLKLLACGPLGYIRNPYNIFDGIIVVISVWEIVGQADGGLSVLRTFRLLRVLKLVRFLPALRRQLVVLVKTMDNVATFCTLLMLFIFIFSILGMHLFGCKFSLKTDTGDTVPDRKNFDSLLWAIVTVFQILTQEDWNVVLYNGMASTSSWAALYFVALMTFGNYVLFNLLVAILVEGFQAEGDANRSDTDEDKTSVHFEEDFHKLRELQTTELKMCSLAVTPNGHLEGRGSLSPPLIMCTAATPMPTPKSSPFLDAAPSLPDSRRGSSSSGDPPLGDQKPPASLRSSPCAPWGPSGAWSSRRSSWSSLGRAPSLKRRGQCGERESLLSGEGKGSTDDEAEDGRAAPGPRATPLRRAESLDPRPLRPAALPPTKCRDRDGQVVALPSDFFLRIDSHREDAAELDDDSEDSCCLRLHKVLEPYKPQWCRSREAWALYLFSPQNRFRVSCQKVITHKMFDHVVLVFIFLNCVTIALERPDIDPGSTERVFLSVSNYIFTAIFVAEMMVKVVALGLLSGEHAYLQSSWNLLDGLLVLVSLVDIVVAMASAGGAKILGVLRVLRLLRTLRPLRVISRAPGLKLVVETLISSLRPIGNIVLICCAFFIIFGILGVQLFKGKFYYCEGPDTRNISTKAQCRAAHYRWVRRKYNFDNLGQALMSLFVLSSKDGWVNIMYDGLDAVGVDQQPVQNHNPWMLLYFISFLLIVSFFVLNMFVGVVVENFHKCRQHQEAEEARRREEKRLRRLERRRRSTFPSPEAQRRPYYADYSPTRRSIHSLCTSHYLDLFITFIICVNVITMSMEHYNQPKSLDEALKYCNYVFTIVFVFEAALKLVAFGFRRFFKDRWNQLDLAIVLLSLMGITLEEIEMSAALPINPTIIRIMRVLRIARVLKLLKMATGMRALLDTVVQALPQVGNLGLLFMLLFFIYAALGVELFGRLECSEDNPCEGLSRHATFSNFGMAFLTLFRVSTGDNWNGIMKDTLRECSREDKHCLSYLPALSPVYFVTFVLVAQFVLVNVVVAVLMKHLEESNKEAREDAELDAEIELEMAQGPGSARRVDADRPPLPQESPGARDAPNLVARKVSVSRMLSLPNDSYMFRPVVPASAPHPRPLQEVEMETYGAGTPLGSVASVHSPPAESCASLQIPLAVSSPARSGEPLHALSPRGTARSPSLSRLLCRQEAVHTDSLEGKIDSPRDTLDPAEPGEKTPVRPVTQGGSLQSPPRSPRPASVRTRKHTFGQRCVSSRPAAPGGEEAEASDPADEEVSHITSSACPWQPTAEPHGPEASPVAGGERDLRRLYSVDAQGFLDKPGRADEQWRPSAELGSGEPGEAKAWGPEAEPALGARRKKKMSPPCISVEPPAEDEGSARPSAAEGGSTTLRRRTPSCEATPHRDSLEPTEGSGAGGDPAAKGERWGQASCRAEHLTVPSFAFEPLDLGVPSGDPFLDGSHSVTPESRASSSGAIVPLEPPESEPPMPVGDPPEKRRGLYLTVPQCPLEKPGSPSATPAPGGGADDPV

[6] = biological target: T3, Heat shock factor protein 1 (Mus musculus, UniProt P38532); test: enhancement of HSF1-driven luciferase signal – cell-based, NIH3T3, luminescence, dose retest, confirmation (AID 435004); format: functional;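 further: stress induced by proteasome inhibitor MG132 added 30 min after compound; luciferase reporter driven by HSF1 response element in NIH3T3 cells; actives raise luminescence as potentiators of the MG132 stress response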
T3 sequence (P38532 whole entry): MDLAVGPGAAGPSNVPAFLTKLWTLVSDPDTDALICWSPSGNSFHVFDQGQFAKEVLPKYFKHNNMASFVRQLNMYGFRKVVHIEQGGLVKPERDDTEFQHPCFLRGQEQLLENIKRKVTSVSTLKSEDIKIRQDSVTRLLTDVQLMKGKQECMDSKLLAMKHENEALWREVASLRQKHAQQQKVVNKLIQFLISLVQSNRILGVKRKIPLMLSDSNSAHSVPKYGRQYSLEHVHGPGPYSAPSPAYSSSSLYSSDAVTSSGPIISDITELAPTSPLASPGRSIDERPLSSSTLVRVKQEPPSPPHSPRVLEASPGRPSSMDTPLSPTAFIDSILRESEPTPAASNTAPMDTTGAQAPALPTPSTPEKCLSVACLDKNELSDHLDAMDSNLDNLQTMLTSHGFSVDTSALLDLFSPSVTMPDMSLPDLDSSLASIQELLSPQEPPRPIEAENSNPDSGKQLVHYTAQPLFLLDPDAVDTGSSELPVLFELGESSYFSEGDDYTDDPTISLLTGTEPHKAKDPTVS

Beta-galactosidase = Beta-galactosidase (Escherichia coli, UniProt Q8VNN2); test: detection-enzyme interference by beta-gal modulators – biochemical, E. coli enzyme, set 3, artefact control for CCR6 antagonist project, dose response (AID 504712); format: functional
[7] = biological target: Neurotensin receptor type 1 (Homo sapiens, UniProt P30989); format: functional;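 further: Image-based confirmatory dose-response assay measuring agonist activity at NTR1; NTR1-expressing U2OS osteosarcoma cells imaged for beta-arrestin GFP spot formation; agonist potency where compounds increase beta-arrestin recruitment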
Neurotensin receptor type 1, sequence (P30989 whole entry): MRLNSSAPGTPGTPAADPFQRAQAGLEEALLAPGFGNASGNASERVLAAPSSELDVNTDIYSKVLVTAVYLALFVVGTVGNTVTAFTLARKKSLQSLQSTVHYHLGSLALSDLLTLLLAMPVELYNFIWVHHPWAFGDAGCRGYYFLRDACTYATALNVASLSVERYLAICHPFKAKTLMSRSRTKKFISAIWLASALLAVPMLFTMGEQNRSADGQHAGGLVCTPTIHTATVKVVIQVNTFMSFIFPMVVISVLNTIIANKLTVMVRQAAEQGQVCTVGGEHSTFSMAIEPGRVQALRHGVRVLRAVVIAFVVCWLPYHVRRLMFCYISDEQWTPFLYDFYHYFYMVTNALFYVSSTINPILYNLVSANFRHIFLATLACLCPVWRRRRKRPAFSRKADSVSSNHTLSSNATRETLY

Cytochrome P450 3A4 [8] = biological target: T2, Cytochrome P450 3A4; conditions: Potency
[9] = NIH3T3 cell viability loss – ATP luminescence, mouse fibroblasts, counter-screen, dose response (AID 2010); format: functional, cell-based;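 further: cells exposed to compound for about 90 hours before reading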
[10] = Trypanosoma cruzi growth suppression in host cells – NIH3T3 host cells, beta-gal luminescence, confirmation (AID 2044); format: functional, cell-based;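 further: intracellular parasites grown in NIH/3T3 mouse fibroblasts as host cells; luminescent beta-galactosidase reporter signal from transgenic T. cruzi replicating inside host cells; inhibitors lower the luminescence signal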
cells [11] = test: cells
[12] = biological target: T4, Corticotropin-releasing factor receptor 2/Corticotropin-releasing factor-binding protein (Homo sapiens, UniProt P24387+Q13324); test: Dose Response confirmation of uHTS hits for small molecule antagonists of the CRF-binding protein and CRF-R2 receptor complex.; format: functional; conditions: read-out: IC50_Mean
T4 sequence (Q13324 whole entry): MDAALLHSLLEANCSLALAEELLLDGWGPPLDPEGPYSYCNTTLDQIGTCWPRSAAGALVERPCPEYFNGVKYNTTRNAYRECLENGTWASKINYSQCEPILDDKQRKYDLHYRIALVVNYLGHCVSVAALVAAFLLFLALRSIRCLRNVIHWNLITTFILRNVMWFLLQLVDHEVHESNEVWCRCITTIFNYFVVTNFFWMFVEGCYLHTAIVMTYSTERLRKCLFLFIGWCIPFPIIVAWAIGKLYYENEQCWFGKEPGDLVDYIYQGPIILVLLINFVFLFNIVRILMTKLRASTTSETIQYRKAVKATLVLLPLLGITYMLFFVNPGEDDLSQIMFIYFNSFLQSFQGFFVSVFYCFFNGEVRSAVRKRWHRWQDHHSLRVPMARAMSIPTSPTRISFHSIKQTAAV
T4 sequence (P24387 whole entry): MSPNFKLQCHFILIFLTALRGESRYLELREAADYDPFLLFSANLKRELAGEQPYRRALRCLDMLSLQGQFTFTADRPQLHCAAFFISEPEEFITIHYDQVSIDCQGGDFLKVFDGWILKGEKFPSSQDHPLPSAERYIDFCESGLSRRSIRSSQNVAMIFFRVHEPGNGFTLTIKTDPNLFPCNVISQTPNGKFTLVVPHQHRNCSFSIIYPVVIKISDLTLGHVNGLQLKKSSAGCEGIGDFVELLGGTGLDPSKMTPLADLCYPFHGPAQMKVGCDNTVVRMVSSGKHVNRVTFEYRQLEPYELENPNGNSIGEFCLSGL

[13] = biological target: T4, Corticotropin-releasing factor receptor 2/Corticotropin-releasing factor-binding protein; test: activators of CRF receptor 2 with binding protein – uHTS hits, confirmation (AID 602473); format: functional; conditions: read-out: EC50_Mean
[14] = THP-1 cell cytotoxicity, dose response, cytotoxicity control for non-replicating M. tuberculosis project (AID 489025); format: functional
[15] = HepG2 cell cytotoxicity, dose response, cytotoxicity control for non-replicating M. tuberculosis project (AID 489018); format: functional; conditions: Mycobacterium tuberculosis
[16] = biological target: T5, High affinity choline transporter 1 (Homo sapiens, UniProt Q9GZV3); test: human choline transporter blockers, potency – cell-based, 5-point CRC, membrane potential dye, dose response (AID 504840); format: functional
T5 sequence (Q9GZV3 whole entry): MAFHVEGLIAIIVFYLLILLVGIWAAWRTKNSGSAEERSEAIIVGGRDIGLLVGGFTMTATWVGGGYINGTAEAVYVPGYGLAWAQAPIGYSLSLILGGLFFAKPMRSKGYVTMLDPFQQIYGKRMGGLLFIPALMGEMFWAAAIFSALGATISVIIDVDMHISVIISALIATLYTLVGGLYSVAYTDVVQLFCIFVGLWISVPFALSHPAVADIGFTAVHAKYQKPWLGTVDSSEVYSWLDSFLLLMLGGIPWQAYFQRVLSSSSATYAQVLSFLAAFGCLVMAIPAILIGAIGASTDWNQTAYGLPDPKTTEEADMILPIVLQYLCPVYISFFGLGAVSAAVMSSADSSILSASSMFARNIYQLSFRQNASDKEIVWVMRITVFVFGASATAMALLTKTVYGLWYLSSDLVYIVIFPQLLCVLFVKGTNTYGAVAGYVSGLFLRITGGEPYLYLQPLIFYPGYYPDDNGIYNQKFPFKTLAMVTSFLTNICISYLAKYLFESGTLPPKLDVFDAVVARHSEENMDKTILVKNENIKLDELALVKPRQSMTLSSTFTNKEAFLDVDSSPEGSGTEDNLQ

cells [17] = format: functional
[18] = HEK-293T viability loss after treatment – luminescence, T-cell screen hits, cytotoxicity control for TCR NF-kB inhibitor project, dose response (AID 489026); format: functional, cell-based;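 further: cells exposed to compound about 14 hours before the viability readout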
Streptokinase A = biological target: T6, Streptokinase A (Streptococcus pyogenes serotype M1, UniProt P10520); test: viability-normalized secreted streptokinase activity reduction – plasminogen activation absorbance, OD405, dose response (AID 1914); format: functional, Streptococcus pyogenes M1 GAS;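 further: secreted streptokinase activity via plasminogen activation per viability signal from cell pellet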
T6 sequence (P10520 whole entry): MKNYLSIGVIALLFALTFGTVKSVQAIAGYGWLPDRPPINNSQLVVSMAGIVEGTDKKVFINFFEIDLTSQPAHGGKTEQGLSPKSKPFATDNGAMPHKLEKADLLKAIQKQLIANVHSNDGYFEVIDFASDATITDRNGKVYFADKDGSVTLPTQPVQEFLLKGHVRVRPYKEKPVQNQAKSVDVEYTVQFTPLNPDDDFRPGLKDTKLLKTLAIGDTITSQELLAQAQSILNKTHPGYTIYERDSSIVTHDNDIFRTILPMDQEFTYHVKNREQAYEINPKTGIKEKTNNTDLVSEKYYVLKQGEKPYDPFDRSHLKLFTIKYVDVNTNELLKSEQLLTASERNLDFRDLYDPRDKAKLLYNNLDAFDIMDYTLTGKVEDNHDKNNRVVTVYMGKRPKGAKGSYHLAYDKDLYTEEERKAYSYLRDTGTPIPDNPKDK

Streptococcus = test: GAS UMAA2166 growth inhibition – luminescence, BacTiterGlo, counter-screen for streptokinase expression inhibitor project, dose response (AID 1915); format: functional, organism-based;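 further: potency for reduction of bacterial viability or growth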
[19] = system: Streptococcus sp. 'group A'; test: Streptococcus pyogenes SK(-)GAS viability under kanamycin – luminescence, BacTiterGlo, confirmation, counter-screen for streptokinase expression inhibitor project, dose response (AID 1900); format: functional, organism-based

## CC(C)c1ccc(C2=C(O)C(=O)c3ccccc3C2=O)cc1
[1]
  CC50: 16.5 µM (active)
[2]
  EC50: 67.1 µM (active)
[3]
  EC50: 1.11 µM (active)

## COc1cc(C)nc(N(Cc2ccccc2)S(=O)(=O)c2ccc(C)cc2)n1
Ion channel NompC
  EC50: > 29.9 µM (not active)
Mucolipin-3
  EC50: 6.93 µM (active)

## C=CCN(CC=C)CC(O)Cn1c2ccccc2c2ccccc21 (stereo not given)
Cytochrome P450 3A4 [4]
  AC50: 28.2 µM (inconclusive)
INS1
  AC50: > 120 µM (inactive)
[5]
  EC50: 9.06 µM (active)

## CCc1ccccc1NC(=O)c1cc2sccc2n1C
[5]
  EC50: 12 µM (active)

## CCOC(=O)c1c(N2C(=O)C=CC2=O)sc(C)c1C
[6]
  EC50: 4.22 µM (active)
Beta-galactosidase
  IC50: > 66.6 µM (inactive)

## C=CCOc1ccc2c(c1)c(S(=O)(=O)c1ccc(C)cc1)cn2COC
Ion channel NompC
  EC50: > 29.9 µM (not active)
Mucolipin-3
  EC50: 1.16 µM (active)

## CCOc1cc(/C=C2/C(=O)ON=C2C)ccc1OCc1ccccc1
[7]
  EC50: 23 µM (inactive)

## Cc1ccc(S(=O)(=O)N(C)CC(=O)ONC(=N)c2cccc([N+](=O)[O-])c2)cc1
Ion channel NompC
  EC50: > 29.9 µM (not active)
Mucolipin-3
  EC50: 12.1 µM (not active)

## CNC(=O)[C@H](C)/C=C(\c1cccnc1)C(NC(=O)OCc1ccccc1)c1ccc(C(=O)OC)cc1 (stereo not given in full)
Cytochrome P450 3A4 [8]
  AC50: 20 µM (inconclusive)

## CCN(CC)CCN(C(=O)CN1C(=O)c2ccccc2C1=O)c1nc2cc3c(cc2s1)OCO3
[9]
  EC50: > 60 µM (not active)
[10]
  EC50: < 0.1 µM (active)
Cells [11]
  EC50: 0.349 µM (active)
[12]
  IC50: > 47.1 µM (inactive)
[13]
  EC50: > 53 µM (inactive)

## Cc1ccc2c(c1)C(O)(c1c(C)[nH]c3ccccc13)C(=O)N2 (stereo not given)
[5]
  EC50: 8.82 µM (active)

## Cc1cc(Br)ccc1OCCCCN1CCCCC1
[9]
  EC50: > 60 µM (not active)
[10]
  EC50: 0.75 µM (active)
[14]
  CC50: > 40 µM (active)
[15]
  CC50: > 20 µM (active)

## COc1c2c(cc3c1OCO3)C13C=CC(OC)CC1N(C2)CC3O (stereo not given)
Cytochrome P450 3A4 [8]
  AC50: 39.8 µM (inconclusive)

## C=C1C(=O)OC2C1CC/C(C)=C/CCC1(C)OC21 (stereo not given)
Cytochrome P450 3A4 [8]
  AC50: 25.1 µM (inconclusive)

## Cc1cccc(OCC(O)Cn2c(=N)n(Cc3ccccc3)c3ccccc32)c1 (stereo not given)
[14]
  CC50: 23.3 µM (active)
[16]
  IC50: 6.92 µM (active)
[15]
  CC50: > 20 µM (active)

## C[C@H](NC(=O)c1[nH]cnc1C(=O)NCc1ccc(CNC(=O)OC(C)(C)C)cc1)C(=O)OCc1ccccc1
[7]
  EC50: 19.4 µM (active)

## COc1cc(C(=O)N/N=C/c2cc([N+](=O)[O-])cs2)cc(OC)c1OC
Cells [17]
  IC50: 0.87 µM (active)
[14]
  CC50: 0.724 µM (active)
[1]
  CC50: 5.03 µM (active)
[15]
  CC50: > 20 µM (active)
[18]
  IC50: > 80 µM (inactive)

## O=[N+]([O-])c1cc(Cl)cc(/C=N/Nc2nc3ccccc3s2)c1O
Cells [17]
  IC50: 2.82 µM (active)
[14]
  CC50: 10 µM (active)
[1]
  CC50: 10.4 µM (active)
Streptokinase A
  EC50: > 150 µM (not active)
Streptococcus
  EC50: 7.64 µM (active)
[15]
  CC50: 16.4 µM (active)
[19]
  EC50: 2.17 µM (active)
